# Data taken from US12208088B2 (Genentech, Inc., priority 2018, dated 2025).
# pKi: −log10 of the molar value.
# Molecular target: HPK1 (Homo sapiens (Human), UniProt Q92918)
# Assay: HPK1 Lantha binding assay ("Lanth")
# Conditions: binding assays; Morrison Ki fit
# In short: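 Ki values are from Morrison-equation fitting of 665/615 nm TR-FRET signals, taking enzyme level, tracer level and tracer Kd into account. The assay mix held HPK1 (2 nM), Eu-anti-GST antibody (2 nM) and Tracer222 (15 nM). Incubations were two 1 h steps at 23 °C, on 5-fold serial compound dilutions.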
# Chain of HPK1 (Q92918 1-346 limits assumed): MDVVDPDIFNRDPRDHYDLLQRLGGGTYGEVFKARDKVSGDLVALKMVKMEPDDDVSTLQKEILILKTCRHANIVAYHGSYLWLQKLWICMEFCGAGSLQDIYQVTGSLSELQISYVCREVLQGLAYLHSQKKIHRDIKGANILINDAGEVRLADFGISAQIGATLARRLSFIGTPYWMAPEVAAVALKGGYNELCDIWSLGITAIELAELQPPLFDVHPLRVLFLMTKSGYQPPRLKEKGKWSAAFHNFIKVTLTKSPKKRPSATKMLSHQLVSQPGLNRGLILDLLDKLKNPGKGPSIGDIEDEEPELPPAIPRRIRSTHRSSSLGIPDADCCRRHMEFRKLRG
row,Structure (SMILES),pKi
1,"Cn1cc(C2CCCCN2C(=O)c2c(N)ccc(-c3cnc4c(c3Cl)[C@]3(CC[C@H](O)CC3)CN4)c2F)cn1 (single isomer, unassigned) [Compound 254a]",8.28
2,"Cn1cc(C2CCCCN2C(=O)c2c(N)ccc(-c3cnc4c(c3Cl)[C@]3(CC[C@H](O)CC3)CN4)c2F)cn1 (single isomer, unassigned) [Compound 254b]",6.96
3,"CN(C)C(=O)c1c(N)ccc(-c2cnc3c(c2Cl)[C@]2(CC[C@](C)(C#N)C2)CN3)c1F (single isomer, unassigned) [Compound 261a]",8.38
4,"CN(C)C(=O)c1c(N)ccc(-c2cnc3c(c2Cl)[C@@]2(CC[C@@](C)(C#N)C2)CN3)c1F (single isomer, unassigned) [Compound 261b]",7.43
5,"Cc1c(CC#N)ccnc1-c1cccc(-c2cnc3c(c2Cl)[C@]2(CC[C@](C)(C#N)C2)CN3)c1F (single isomer, unassigned) [Compound 266a]",7.19
6,"Cc1c(CC#N)ccnc1-c1cccc(-c2cnc3c(c2Cl)[C@@]2(CC[C@@](C)(C#N)C2)CN3)c1F (single isomer, unassigned) [Compound 266b]",8.41
7,"Cc1c(CC#N)ccnc1-c1cccc(-c2cnc3c(c2Cl)[C@]2(CC[C@](C)(C(N)=O)C2)CN3)c1F (single isomer, unassigned) [Compound 267a]",6.96
8,"Cc1c(CC#N)ccnc1-c1cccc(-c2cnc3c(c2Cl)[C@@]2(CC[C@@](C)(C(N)=O)C2)CN3)c1F (single isomer, unassigned) [Compound 267b]",9.41
9,"CN(C)CCN(C)C(=O)c1c(N)ccc(-c2cnc3c(c2Cl)[C@]2(CC[C@](C)(C#N)C2)CN3)c1F (single isomer, unassigned) [Compound 271a]",7.60
10,"Cc1c(CC#N)ccnc1-c1cc(N)cc(-c2cnc3c(c2Cl)[C@]2(CC[C@](C)(C#N)C2)CN3)c1 (single isomer, unassigned) [Compound 274a]",7.88
11,"Cc1c(CC#N)ccnc1-c1cc(N)cc(-c2cnc3c(c2Cl)[C@]2(CC[C@](C)(C#N)C2)CN3)c1 (single isomer, unassigned) [Compound 274b]",9.05
12,"O=C1CCCCN1c1cccc2c(-c3cnc4c(c3Cl)[C@]3(CC[C@H](O)C3)CN4)c[nH]c12 (single isomer, unassigned) [Compound 300a]",7.57
13,"O=C1CCCCN1c1cccc2c(-c3cnc4c(c3Cl)[C@@]3(CC[C@@H](O)C3)CN4)c[nH]c12 (single isomer, unassigned) [Compound 300b]",6.57
14,"CO[C@@H]1C[C@@]2(CNc3ncc(-c4ccc(N)c(C(=O)N(C)C)c4F)c(Cl)c32)C[C@H]1O (stereo in doubt) [Compound 140a, 6-Amino-3-((1R,3S,4S)-4′-chloro-3-hydroxy-4-methoxy-1′,2′-dihydrospiro[cyclopentane-1,3′-pyrrolo[2,3-b]pyridin]-5′-yl)-2-fluoro-N,N-dimethylbenzamide]",6.47
15,"CO[C@H]1C[C@]2(CNc3ncc(-c4ccc(N)c(C(=O)N(C)C)c4F)c(Cl)c32)C[C@@H]1O (stereo in doubt) [Compound 140b, 6-Amino-3-((1S,3R,4R)-4′-chloro-3-hydroxy-4-methoxy-1′,2′-dihydrospiro[cyclopentane-1,3′-pyrrolo[2,3-b]pyridin]-5′-yl)-2-fluoro-N,N-dimethylbenzamide]",7.20
16,"CN(C)C(=O)c1c(N)ccc(-c2cnc3c(c2Cl)[C@]2(CN3)CC(O)C(n3ccnn3)C2)c1F (stereo in doubt) [Compound 146a, 6-Amino-3-((1R,3S,4S)-4′-chloro-3-hydroxy-4-(1H-1,2,3-triazol-1-yl)-1′,2′-dihydrospiro[cyclopentane-1,3′-pyrrolo[2,3-b]pyridin]-5′-yl)-2-fluoro-N,N-dimethylbenzamide]",6.31
17,"CN(C)C(=O)c1cc(-c2cnc3c(c2)C2(CCCC2)CN3)ccc1N [Compound 1, 2-Amino-5-(1′,2′-dihydrospiro[cyclopentane-1,3′-pyrrolo[2,3-b]pyridin]-5′-yl)-N,N-dimethylbenzamide]",7.54
18,"CN(C)C(=O)c1cc(-c2cnc3c(c2)C2(CC2)CN3)ccc1N [Compound 2, 2-Amino-5-(1′,2′-dihydrospiro[cyclopropane-1,3′-pyrrolo[2,3-b]pyridin]-5′-yl)-N,N-dimethylbenzamide]",7.45
19,"O=C1COCCN1c1cccc(-c2cnc3c(c2)C2(CC2)CN3)c1 [Compound 3, 4-(3-(1′,2′-Dihydrospiro[cyclopropane-1,3′-pyrrolo[2,3-b]pyridin]-5′-yl)phenyl)morpholin-3-one]",7.39

row,Structure (SMILES),pKi
1,"CN(C)C(=O)c1cc(-c2cnc3c(c2)C2(CCC2)CN3)ccc1N [Compound 4, 2-Amino-5-(1′,2′-dihydrospiro[cyclobutane-1,3′-pyrrolo[2,3-b]pyridin]-5′-yl)-N,N-dimethylbenzamide]",7.14
2,"O=C1COCCN1c1cccc(-c2cnc3c(c2)C2(CCC2)CN3)c1 [Compound 5, 4-(3-(1′,2′-Dihydrospiro[cyclobutane-1,3′-pyrrolo[2,3-b]pyridin]-5′-yl)phenyl)morpholin-3-one]",7.01
3,"CN(C)C(=O)c1c(N)ccc(-c2cnc3c(c2)C2(CC2)CN3)c1F [Compound 6, 6-Amino-3-(1′,2′-dihydrospiro[cyclopropane-1,3′-pyrrolo[2,3-b]pyridin]-5′-yl)-2-fluoro-N,N-dimethylbenzamide]",7.64
4,"CN(CCO)C(=O)c1c(N)ccc(-c2cnc3c(c2)C2(CC2)CN3)c1F [Compound 7, 6-amino-3-(1′,2′-dihydrospiro[cyclopropane-1,3′-pyrrolo[2,3-b]pyridin]-5′-yl)-2-fluoro-N-(2-hydroxyethyl)-N-methylbenzamide]",7.67
5,"CN(C)C(=O)c1c(N)ccc(-c2cnc3c(c2Cl)C2(CC2)CN3)c1F [Compound 8, 6-Amino-3-(4′-chloro-1′,2′-dihydrospiro[cyclopropane-1,3′-pyrrolo[2,3-b]pyridin]-5′-yl)-2-fluoro-N,N-dimethylbenzamide]",8.11
6,"O=C1COCCN1c1cccc(-c2cnc3c(c2)C2(CC2)CN3)c1F [Compound 9, 4-(3-(1′,2′-Dihydrospiro[cyclopropane-1,3′-pyrrolo[2,3-b]pyridin]-5′-yl)-2-fluorophenyl)morpholin-3-one]",7.41
7,"Nc1cc(-c2cnc3c(c2)C2(CC2)CN3)cc(-c2ncccc2CO)c1 [Compound 10, (2-(3-Amino-5-(1′,2′-dihydrospiro[cyclopropane-1,3′-pyrrolo[2,3-b]pyridin]-5′-yl)phenyl)pyridin-3-yl)methanol]",7.90
8,"NS(=O)(=O)Cc1ccc(-c2cnc3c(c2)C2(CC2)CN3)cc1 [Compound 11, (4-(1′,2′-Dihydrospiro[cyclopropane-1,3′-pyrrolo[2,3-b]pyridin]-5′-yl)phenyl)methanesulfonamide]",7.04
9,"CN(CCO)C(=O)c1cccc(-c2cnc3c(c2)C2(CC2)CN3)c1F [Compound 12, 3-(1′,2′-Dihydrospiro[cyclopropane-1,3′-pyrrolo[2,3-b]pyridin]-5′-yl)-2-fluoro-N-(2-hydroxyethyl)-N-methylbenzamide]",7.42
10,"CC1(C)C(=O)Nc2ccc(-c3cnc4c(c3)C3(CC3)CN4)cc21 [Compound 13, 5-(1′,2′-dihydrospiro[cyclopropane-1,3′-pyrrolo[2,3-b]pyridin]-5′-yl)-3,3-dimethylindolin-2-one]",7.67
11,"CN(C)C(=O)c1c(N)ccc(-c2cnc3c(c2)C2(CC2)CN3)c1Cl [Compound 14, 6-amino-2-chloro-3-(1′,2′-dihydrospiro[cyclopropane-1,3′-pyrrolo[2,3-b]pyridin]-5′-yl)-N,N-dimethylbenzamide]",6.06
12,"CC1Nc2ncc(-c3ccc(N)c(C(=O)N(C)C)c3F)cc2C12CC2 (centres unmarked) [Compound 15, 6-Amino-2-fluoro-N,N-dimethyl-3-(2′-methyl-1′,2′-dihydrospiro[cyclopropane-1,3′-pyrrolo[2,3-b]pyridin]-5′-yl)benzamide]",6.91
13,"CN(C)C(=O)c1cc(CO)cc(-c2cnc3c(c2)C2(CC2)CN3)c1 [Compound 16, 3-(1′,2′-dihydrospiro[cyclopropane-1,3′-pyrrolo[2,3-b]pyridin]-5′-yl)-5-(hydroxymethyl)-N,N-dimethylbenzamide]",6.28
14,"Nc1ccc(-c2cnc3c(c2)C2(CC2)CN3)c(F)c1C(=O)N1CCCC1CO (centres unmarked) [Compound 17, (6-amino-3-(1′,2′-dihydrospiro[cyclopropane-1,3′-pyrrolo[2,3-b]pyridin]-5′-yl)-2-fluorophenyl)(2-(hydroxymethyl)pyrrolidin-1-yl)methanone]",7.48
15,"CN(C)C(=O)c1cc(-c2cnc3c(c2)C2(CC2)CN3)ccc1CO [Compound 18, 5-(1′,2′-dihydrospiro[cyclopropane-1,3′-pyrrolo[2,3-b]pyridin]-5′-yl)-2-(hydroxymethyl)-N,N-dimethylbenzamide]",6.59
16,"CN(C(=O)c1c(N)ccc(-c2cnc3c(c2)C2(CC2)CN3)c1F)C(C)(C)CO [Compound 19, 6-amino-3-(1′,2′-dihydrospiro[cyclopropane-1,3′-pyrrolo[2,3-b]pyridin]-5′-yl)-2-fluoro-N-(1-hydroxy-2-methylpropan-2-yl)-N-methylbenzamide]",7.68
17,"CC1(O)C(=O)Nc2ccc(-c3cnc4c(c3)C3(CC3)CN4)cc21 (centres unmarked) [Compound 20, 5-(1′,2′-dihydrospiro[cyclopropane-1,3′-pyrrolo[2,3-b]pyridin]-5′-yl)-3-hydroxy-3-methylindolin-2-one]",6.67
18,"CN(C)S(=O)(=O)c1cccc(-c2cnc3c(c2)C2(CC2)CN3)c1F [Compound 21, 3-(1′,2′-dihydrospiro[cyclopropane-1,3′-pyrrolo[2,3-b]pyridin]-5′-yl)-2-fluoro-N,N-dimethylbenzenesulfonamide]",6.53
19,"CNS(=O)(=O)c1cccc(-c2cnc3c(c2)C2(CC2)CN3)c1F [Compound 22, 3-(1′,2′-dihydrospiro[cyclopropane-1,3′-pyrrolo[2,3-b]pyridin]-5′-yl)-2-fluoro-N-methylbenzenesulfonamide]",6.06
